Marks after values point to notes of the source that are not given here.
Experiment: Biodistribution studies in rats
Assay type: in vivo, Wistar rats
Conditions: for uptake ratio Frontal cortex/cereb. / uptake ratio Hippocampus/cereb. / uptake ratio Hypothalamus/cereb. / uptake ratio Midbrain/cereb. / uptake ratio Olfactory b./cereb. / uptake ratio Pons/medulla/cereb. / uptake ratio Striatum/cereb. / uptake ratio Thalamus/cereb. / uptake ratio Pituitary/cereb.: rats; for 123I radioactivity, Blood / 123I radioactivity, Cerebellum / 123I radioactivity, Fat: male rats
Procedure: [^123I]-1 (SA ≥ 37 MBq/nmol) was received after radiolabelling in an isotonic acetate (9% EtOH) buffer (pH 4.8). The solution was passed through a membrane filter (0.2 μm) and was diluted to the proper concentrations. Male Wistar rats (approximately 250 g body weight, obtained from Harlan/Charles River, Zeist, Netherlands) received an intravenous injection in the tail vein of approximately 3.7 MBq/0.4 mL buffer of [^123I]-1 under O2/CO2 anaesthesia. Distribution to the tissue was measured 15 min, 30 min, and 1, 2, 3, 4, and 24 h after the injection to determine the time course of uptake in several organs, including the brain. Four rats were killed at each time point via bleeding by heart puncture (to minimize contribution of blood activity) under O2/CO2 anaesthesia followed by cervical dislocation. Brain regions (cerebellum, frontal and prefrontal cortex, olfactory bulbs, pituitary, medulla with pons, midbrain, striatum, hypothalamus, hippocampus, and thalamus) and various peripheral tissues (heart, lung, liver, spleen, kidney, muscle, fat, and thymus) were quickly excised and weighted. The activity of [^123I] was assayed in a gamma counter, and data was corrected for decay and the amount of radioactivity was presented as percentage of the injected dose, multiplied by the body weight in kilograms, per gram tissue or blood. Selective uptake in the striatum was determined by calculating the ratio of radioactivity in the striatum in relation to that in the cerebellum, since the density of dopamine D2/3 receptor is negligible in this brain area in rats.

Compound: Oc1ccc2c(c1)O[C@@H](CNCc1ccc([123I])cc1)CC2 [[^123I]-1]
- uptake ratio Frontal cortex/cereb. (15 min after i.v. injection): 2.962 ± 1.817
- uptake ratio Hippocampus/cereb. (15 min after i.v. injection): 0.870 ± 0.303
- uptake ratio Hypothalamus/cereb. (15 min after i.v. injection): 1.512 ± 0.546
- uptake ratio Midbrain/cereb. (15 min after i.v. injection): 3.712 ± 4.715
- uptake ratio Olfactory b./cereb. (15 min after i.v. injection): 0.431 ± 0.330
- uptake ratio Pons/medulla/cereb. (15 min after i.v. injection): 1.470 ± 0.520
- uptake ratio Striatum/cereb. (15 min after i.v. injection): 1.455 ± 1.265
- uptake ratio Thalamus/cereb. (15 min after i.v. injection): 1.670 ± 0.908
- uptake ratio Pituitary/cereb. (15 min after i.v. injection, only 1 sample): 1.157^*
- uptake ratio Frontal cortex/cereb. (30 min after i.v. injection): 1.543 ± 0.142
- uptake ratio Hippocampus/cereb. (30 min after i.v. injection): 1.479 ± 0.466
- uptake ratio Hypothalamus/cereb. (30 min after i.v. injection): 1.139 ± 0.014
- uptake ratio Midbrain/cereb. (30 min after i.v. injection): 1.144 ± 0.051
- uptake ratio Olfactory b./cereb. (30 min after i.v. injection): 0.893 ± 0.067
- uptake ratio Pituitary/cereb. (30 min after i.v. injection): 2.262 ± 0.233
- uptake ratio Pons/medulla/cereb. (30 min after i.v. injection): 1.036 ± 0.212
- uptake ratio Striatum/cereb. (30 min after i.v. injection): 1.294 ± 0.061
- uptake ratio Thalamus/cereb. (30 min after i.v. injection): 1.325 ± 0.074
- mean ratio of striatum/cerebellum binding (30 min to 4 h p.i., i.v., Wistar rats): about 1.3
- uptake ratio Frontal cortex/cereb. (1 h after i.v. injection): 1.154 ± 0.095
- uptake ratio Hippocampus/cereb. (1 h after i.v. injection): 1.390 ± 0.210
- uptake ratio Hypothalamus/cereb. (1 h after i.v. injection): 1.189 ± 0.132
- uptake ratio Midbrain/cereb. (1 h after i.v. injection): 1.207 ± 0.109
- uptake ratio Olfactory b./cereb. (1 h after i.v. injection): 1.007 ± 0.050
- uptake ratio Pituitary/cereb. (1 h after i.v. injection): 2.502 ± 0.883
- uptake ratio Pons/medulla/cereb. (1 h after i.v. injection): 1.218 ± 0.109
- uptake ratio Striatum/cereb. (1 h after i.v. injection): 1.246 ± 0.103
- uptake ratio Thalamus/cereb. (1 h after i.v. injection): 1.243 ± 0.042
- uptake ratio Frontal cortex/cereb. (2 h after i.v. injection): 1.145 ± 0.079
- uptake ratio Hippocampus/cereb. (2 h after i.v. injection): 1.301 ± 0.047
- uptake ratio Hypothalamus/cereb. (2 h after i.v. injection): 1.116 ± 0.085
- uptake ratio Midbrain/cereb. (2 h after i.v. injection): 1.168 ± 0.080
- uptake ratio Olfactory b./cereb. (2 h after i.v. injection): 1.125 ± 0.089
- uptake ratio Pituitary/cereb. (2 h after i.v. injection): 4.399 ± 2.113
- uptake ratio Pons/medulla/cereb. (2 h after i.v. injection): 1.205 ± 0.016
- uptake ratio Striatum/cereb. (2 h after i.v. injection): 1.155 ± 0.069
- uptake ratio Thalamus/cereb. (2 h after i.v. injection): 1.200 ± 0.067
- uptake ratio Frontal cortex/cereb. (3 h after i.v. injection): 1.315 ± 0.360
- uptake ratio Hippocampus/cereb. (3 h after i.v. injection): 1.294 ± 0.112
- uptake ratio Hypothalamus/cereb. (3 h after i.v. injection): 1.326 ± 0.053
- uptake ratio Midbrain/cereb. (3 h after i.v. injection): 1.224 ± 0.090
- uptake ratio Olfactory b./cereb. (3 h after i.v. injection): 1.314 ± 0.150
- uptake ratio Pituitary/cereb. (3 h after i.v. injection): 3.352 ± 1.490
- uptake ratio Pons/medulla/cereb. (3 h after i.v. injection): 1.310 ± 0.114
- uptake ratio Striatum/cereb. (3 h after i.v. injection): 1.331 ± 0.126
- uptake ratio Thalamus/cereb. (3 h after i.v. injection): 1.582 ± 0.101
- uptake ratio Frontal cortex/cereb. (4 h after i.v. injection): 0.865 ± 0.580
- uptake ratio Hippocampus/cereb. (4 h after i.v. injection): 1.035 ± 0.114
- uptake ratio Hypothalamus/cereb. (4 h after i.v. injection): 1.332 ± 0.103
- uptake ratio Midbrain/cereb. (4 h after i.v. injection): 1.097 ± 0.086
- uptake ratio Olfactory b./cereb. (4 h after i.v. injection): 1.333 ± 0.124
- uptake ratio Pituitary/cereb. (4 h after i.v. injection): 3.570 ± 2.544
- uptake ratio Pons/medulla/cereb. (4 h after i.v. injection): 1.214 ± 0.133
- uptake ratio Striatum/cereb. (4 h after i.v. injection): 1.156 ± 0.080
- uptake ratio Thalamus/cereb. (4 h after i.v. injection): 1.351 ± 0.175
- uptake ratio Frontal cortex/cereb. (24 h after i.v. injection): 1.818 ± 0.372
- uptake ratio Hippocampus/cereb. (24 h after i.v. injection): 1.031 ± 0.090
- uptake ratio Hypothalamus/cereb. (24 h after i.v. injection): 1.989 ± 0.574
- uptake ratio Midbrain/cereb. (24 h after i.v. injection): 1.426 ± 0.204
- uptake ratio Olfactory b./cereb. (24 h after i.v. injection): 1.444 ± 0.163
- uptake ratio Pituitary/cereb. (24 h after i.v. injection): 6.021 ± 0.577
- uptake ratio Pons/medulla/cereb. (24 h after i.v. injection): 1.278 ± 0.211
- uptake ratio Striatum/cereb. (24 h after i.v. injection): 2.023 ± 0.872
- uptake ratio Thalamus/cereb. (24 h after i.v. injection): 2.473 ± 0.599
- 123I radioactivity, Blood (15 min after i.v. injection): 0.291 ± 0.190 %ID × kg/g
- 123I radioactivity, Blood (30 min after i.v. injection): 0.486 ± 0.291 %ID × kg/g
- 123I radioactivity, Blood (1 h after i.v. injection): 0.557 ± 0.087 %ID × kg/g
- 123I radioactivity, Blood (2 h after i.v. injection): 0.446 ± 0.105 %ID × kg/g
- 123I radioactivity, Blood (3 h after i.v. injection): 0.428 ± 0.082 %ID × kg/g
- 123I radioactivity, Blood (4 h after i.v. injection): 0.393 ± 0.136 %ID × kg/g
- 123I radioactivity, Blood (24 h after i.v. injection): 0.081 ± 0.049 %ID × kg/g
- 123I radioactivity, Cerebellum (15 min after i.v. injection): 0.858 ± 0.384 %ID × kg/g
- 123I radioactivity, Cerebellum (30 min after i.v. injection): 1.496 ± 0.478 %ID × kg/g
- 123I radioactivity, Cerebellum (1 h after i.v. injection): 0.627 ± 0.035 %ID × kg/g
- 123I radioactivity, Cerebellum (2 h after i.v. injection): 0.196 ± 0.037 %ID × kg/g
- 123I radioactivity, Cerebellum (3 h after i.v. injection): 0.178 ± 0.061 %ID × kg/g
- 123I radioactivity, Cerebellum (4 h after i.v. injection): 0.087 ± 0.043 %ID × kg/g
- 123I radioactivity, Cerebellum (24 h after i.v. injection): 0.014 ± 0.002 %ID × kg/g
- 123I radioactivity, Fat (15 min after i.v. injection): 3.080 ± 2.656 %ID × kg/g
- 123I radioactivity, Fat (30 min after i.v. injection): 0.674 ± 0.102 %ID × kg/g
- 123I radioactivity, Fat (1 h after i.v. injection): 0.509 ± 0.024 %ID × kg/g
- 123I radioactivity, Fat (2 h after i.v. injection): 0.365 ± 0.094 %ID × kg/g

— PMC4291083, “Ex Vivo Characterization of a Novel Iodine-123-Labelled Aminomethylchroman as a Potential Agonist Ligand for SPECT Imaging of Dopamine D2/3 Receptors” (International Journal of Molecular Imaging, 2014)
